Source: patent US8748417B2, “Amino-pyrrolidine-azetidine diamides as monoacylglycerol lipase inhibitors” (Janssen Pharmaceutica, NV, priority 2010, dated 2014)
Residue numbers refer to the chain shown, from its start.

Experiments:
Type in all cases: biochemical
[1] = molecular target: T1, purified mutant MGL (mut-MGLL 11-313 L179S L186S) (Homo sapiens, UniProt Q99685, L169S/L176S); experiment: MGL enzyme activity assay (4MU-B cleavage), mutant MGL; conditions: mutant MGL 5 nM, 4MU-B 10 μM, 37° C.; read-out: MGL mutant inh IC50
T1 construct: purified mutant MGL (mut-MGLL 11-313 L179S L186S)
T1 sequence (Q99685 1-303 L169S/L176S): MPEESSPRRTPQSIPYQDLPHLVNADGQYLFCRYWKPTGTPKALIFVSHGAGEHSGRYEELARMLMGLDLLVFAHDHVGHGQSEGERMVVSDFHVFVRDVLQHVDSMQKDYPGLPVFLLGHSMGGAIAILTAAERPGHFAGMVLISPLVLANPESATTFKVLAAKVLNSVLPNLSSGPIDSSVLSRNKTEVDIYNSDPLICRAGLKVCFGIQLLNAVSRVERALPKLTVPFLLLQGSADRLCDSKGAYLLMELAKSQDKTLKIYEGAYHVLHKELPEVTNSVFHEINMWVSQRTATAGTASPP
Description: All rate-based assays were performed in black 384-well polypropylene PCR microplates (Abgene) in a total volume of 30 μL. Substrate 4-methylumbelliferyl butyrate (4MU-B; Sigma) and either purified mutant MGL (mut-MGLL 11-313 L179S L186S) or purified wild type MGL (wt-MGLL 6H-11-313) were diluted separately into 20 mM PIPES buffer (pH=7.0), containing 150 mM NaCl and 0.001% Tween 20. Compounds of Formula (I) were pre-dispensed (50 nL) into the assay plate using a Cartesian Hummingbird prior to adding 4MU-B (25 μL of 1.2× solution to a final concentration of 10 μM) followed by enzyme (5 μL of a 6× solution to a final concentration of 5 nM) to initiate the reaction. Final compound concentrations ranged from 17 to 0.0003 μM. The fluorescence change due to 4MU-B cleavage was monitored with excitation and emission wavelengths of 335 and 440 nm, respectively, and a bandwidth of 10 nm (Safire^2, Tecan) at 37° C. for 5 min.
The IC50 values for the following compounds were determined using Microsoft Office Excel from a fit of the equation to the concentration-response plot of the fractional activity as a function of inhibitor concentration.

[2] = molecular target: T2, purified wild type MGL (wt-MGLL 6H-11-313) (Homo sapiens, UniProt Q99685); experiment: MGL enzyme activity assay (4MU-B cleavage), wild type MGL; conditions: wild type MGL 5 nM, 4MU-B 10 μM, 37° C.; read-out: MGL wild type inh IC50
T2 construct: purified wild type MGL (wt-MGLL 6H-11-313)
T2 sequence (Q99685 1-303): T1 sequence (Q99685 1-303 L169S/L176S) with S169L, S176L
Outline: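 Enzyme in 20 mM PIPES pH 7.0, 150 mM NaCl, 0.001% Tween 20 with 4MU-B at 10 μM final and MGL at 5 nM final; compounds 17 to 0.0003 μM final, enzyme added last. Fluorescence (ex 335/em 440 nm) followed at 37° C for 5 min; IC50 from fit of fractional activity versus inhibitor concentration.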

[3] = tested on: MGL (rat brain homogenate); experiment: 2-AG accumulation assay in rat brain homogenate; conditions: compound 1 μM, percent of vehicle 2-AG accumulation
Outline: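 Rat brain homogenate was incubated with compound for 15 min at 37° C., after which CaCl2 was added to a final concentration of 10 mM and incubation continued for 15 min at 37° C. in 5 mL total. Reactions were stopped with 6 mL of 2:1 chloroform/methanol, and 2-AG accumulated in the organic phase was quantified by HPLC/MS.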

**Q.** Which IC50 [1] does the source give for O=C(c1ccc(-c2cccc(C(F)(F)F)c2)cc1)N1CC(N[C@@H]2CN(C(=O)c3ccccc3)C[C@H]2O)C1 (relative stereo) [Cpd 72, trans-1-(Phenylcarbonyl)-4-[(1-{[3′-(trifluoromethyl)biphenyl-4-yl]carbonyl}azetidin-3-yl)amino]pyrrolidin-3-ol] here?
**A.** 757 nM

**Q.** How did the IC50 [1] turn out when O=C(c1ccc(-c2ccccc2)cc1)N1CC(N[C@@H]2CN(C(=O)c3ccccc3)C[C@H]2O)C1 (relative stereo) [Cpd 78, trans-4-{[1-(Biphenyl-4-ylcarbonyl)azetidin-3-yl]amino}-1-(phenylcarbonyl)pyrrolidin-3-ol] was run?
**A.** 13400 nM

**Q.** O=C(c1ccccc1)N1CC[C@H](NC2CN(C(=O)c3sc4ccc(-c5ccc(C(F)(F)F)cc5)cc4c3F)C2)C1 [Cpd 176, (3S)-N-[1-({3-Fluoro-5-[4-(trifluoromethyl)phenyl]-1-benzothiophen-2-yl}carbonyl)azetidin-3-yl]-1-(phenylcarbonyl)pyrrolidin-3-amine] was tested. Which IC50 [2] did it give?
**A.** 6 nM

**Q.** And the “Rat Brain 2AG % VehCntrl (%) @1 μM” value [3]?
**A.** 832%

**Q.** How did the IC50 [2] turn out when O=C(c1nccs1)N1CC[C@H](NC2CN(C(=O)c3sc4cc(-c5ccc(C(F)(F)F)cc5)ccc4c3F)C2)C1 [Cpd 177, (3S)-N-[1-({3-Fluoro-6-[4-(trifluoromethyl)phenyl]-1-benzothiophen-2-yl}carbonyl)azetidin-3-yl]-1-(1,3-thiazol-2-ylcarbonyl)pyrrolidin-3-amine] was run?
**A.** 16 nM

**Q.** And the “Rat Brain 2AG % VehCntrl (%) @1 μM” value [3]?
**A.** 766%

**Q.** For O=C(c1cscn1)N1CC[C@H](NC2CN(C(=O)c3sc4cc(-c5ccc(C(F)(F)F)cc5)ccc4c3F)C2)C1 [Cpd 178, (3S)-N-[1-({3-Fluoro-6-[4-(trifluoromethyl)phenyl]-1-benzothiophen-2-yl}carbonyl)azetidin-3-yl]-1-(1,3-thiazol-4-ylcarbonyl)pyrrolidin-3-amine], which IC50 [2] is on record?
**A.** < 5 nM

**Q.** What about the “Rat Brain 2AG % VehCntrl (%) @1 μM” value [3] of the same compound?
**A.** 297%

**Q.** For O=C(c1ccccc1)N1CC[C@H](NC2CN(C(=O)c3sc4cc(-c5ccc(C(F)(F)F)cc5)ccc4c3F)C2)C1 [Cpd 179, (3S)-N-[1-({3-Fluoro-6-[4-(trifluoromethyl)phenyl]-1-benzothiophen-2-yl}carbonyl)azetidin-3-yl]-1-(phenylcarbonyl)pyrrolidin-3-amine], which IC50 [2] is on record?
**A.** 12 nM

**Q.** What about the “Rat Brain 2AG % VehCntrl (%) @1 μM” value [3] of the same compound?
**A.** 259%

**Q.** What does the source list for O=C(c1ccccc1)N1CC[C@H](NC2CN(C(=O)c3sc4ccc(Cl)cc4c3C(F)(F)F)C2)C1 [Cpd 180, (3S)-N-(1-{[5-Chloro-3-(trifluoromethyl)-1-benzothiophen-2-yl]carbonyl}azetidin-3-yl)-1-(phenylcarbonyl)pyrrolidin-3-amine]?
**A.** IC50 [2]: 42.7 nM; Rat Brain 2AG % VehCntrl (%) @1 μM [3]: 333%

**Q.** O=C(c1cscn1)N1CC[C@H](NC2CN(C(=O)c3sc4ccc(Cl)cc4c3C(F)(F)F)C2)C1 [Cpd 181, (3S)-N-(1-{[5-Chloro-3-(trifluoromethyl)-1-benzothiophen-2-yl]carbonyl}azetidin-3-yl)-1-(1,3-thiazol-4-ylcarbonyl)pyrrolidin-3-amine] was tested. Which IC50 [2] did it give?
**A.** 39.6 nM

**Q.** And the “Rat Brain 2AG % VehCntrl (%) @1 μM” value [3]?
**A.** 241%

**Q.** How did the IC50 [2] turn out when O=C(c1nccs1)N1CC[C@H](NC2CN(C(=O)c3sc4cc(Cl)ccc4c3C(F)(F)F)C2)C1 [Cpd 183, (3S)-N-(1-{[6-Chloro-3-(trifluoromethyl)-1-benzothiophen-2-yl]carbonyl}azetidin-3-yl)-1-(1,3-thiazol-2-ylcarbonyl)pyrrolidin-3-amine] was run?
**A.** 23.1 nM

**Q.** And the “Rat Brain 2AG % VehCntrl (%) @1 μM” value [3]?
**A.** 316%

**Q.** Cc1ccc2c(C(F)(F)F)c(C(=O)N3CC(N[C@H]4CCN(C(=O)c5nccs5)C4)C3)sc2c1 [Cpd 186, (3S)-N-(1-{[6-Methyl-3-(trifluoromethyl)-1-benzothiophen-2-yl]carbonyl}azetidin-3-yl)-1-(1,3-thiazol-2-ylcarbonyl)pyrrolidin-3-amine] was tested. Which IC50 [2] did it give?
**A.** 90.5 nM

**Q.** And the “Rat Brain 2AG % VehCntrl (%) @1 μM” value [3]?
**A.** 563%

**Q.** With O=C(c1ccc2c(-c3ccccc3)c[nH]c2c1)N1CC(N[C@H]2CCN(C(=O)c3nccs3)C2)C1 [Cpd 187, (3S)-N-{1-[(3-Phenyl-1H-indol-6-yl)carbonyl]azetidin-3-yl}-1-(1,3-thiazol-2-ylcarbonyl)pyrrolidin-3-amine] as the compound, how does the IC50 [2] read?
**A.** < 5 nM

**Q.** And the “Rat Brain 2AG % VehCntrl (%) @1 μM” value [3]?
**A.** 242%

**Q.** How did the IC50 [2] turn out when O=C(c1ccc2c(-c3ccccc3)c[nH]c2c1)N1CC(N[C@H]2CCN(C(=O)c3cscn3)C2)C1 [Cpd 188, (3S)-N-{1-[(3-Phenyl-1H-indol-6-yl)carbonyl]azetidin-3-yl}-1-(1,3-thiazol-4-ylcarbonyl)pyrrolidin-3-amine] was run?
**A.** 74.9 nM

**Q.** What about the “Rat Brain 2AG % VehCntrl (%) @1 μM” value [3] of the same compound?
**A.** 140%

**Q.** For O=C(c1ccc2c(-c3ccc(F)cc3)c[nH]c2c1)N1CC(N[C@H]2CCN(C(=O)c3nccs3)C2)C1 [Cpd 189, (3S)-N-(1-{[3-(4-Fluorophenyl)-1H-indol-6-yl]carbonyl}azetidin-3-yl)-1-(1,3-thiazol-2-ylcarbonyl)pyrrolidin-3-amine], which IC50 [2] is on record?
**A.** 12.5 nM

**Q.** What about the “Rat Brain 2AG % VehCntrl (%) @1 μM” value [3] of the same compound?
**A.** 277%

**Q.** With Cn1cc(-c2ccc(F)cc2)c2ccc(C(=O)N3CC(N[C@H]4CCN(C(=O)c5nccs5)C4)C3)cc21 [Cpd 192, (3S)-N-(1-{[3-(4-Fluorophenyl)-1-methyl-1H-indol-6-yl]carbonyl}azetidin-3-yl)-1-(1,3-thiazol-2-ylcarbonyl)pyrrolidin-3-amine] as the compound, how does the IC50 [2] read?
**A.** < 5 nM

**Q.** And the “Rat Brain 2AG % VehCntrl (%) @1 μM” value [3]?
**A.** 374%

**Q.** Cn1cc(-c2ccc(F)cc2)c2ccc(C(=O)N3CC(N[C@H]4CCN(C(=O)c5cscn5)C4)C3)cc21 [Cpd 193, (3S)-N-(1-{[3-(4-Fluorophenyl)-1-methyl-1H-indol-6-yl]carbonyl}azetidin-3-yl)-1-(1,3-thiazol-4-ylcarbonyl)pyrrolidin-3-amine] was tested. Which IC50 [2] did it give?
**A.** 19 nM

**Q.** What about the “Rat Brain 2AG % VehCntrl (%) @1 μM” value [3] of the same compound?
**A.** 219%

**Q.** Which results are given for Cn1cc(-c2ccc(F)cc2)c2ccc(C(=O)N3CC(N[C@H]4CCN(C(=O)c5ccccc5)C4)C3)cc21 [Cpd 194, (3S)-N-(1-{[3-(4-Fluorophenyl)-1-methyl-1H-indol-6-yl]carbonyl}azetidin-3-yl)-1-(phenylcarbonyl)pyrrolidin-3-amine]?
**A.** IC50 [2]: 44.9 nM; Rat Brain 2AG % VehCntrl (%) @1 μM [3]: 178%

**Q.** Which results are given for Cn1nc(-c2ccccc2)c2cc(C(=O)N3CC(N[C@H]4CCN(C(=O)c5nccs5)C4)C3)ccc21 [Cpd 195, (3S)-N-{1-[(1-Methyl-3-phenyl-1H-indazol-5-yl)carbonyl]azetidin-3-yl}-1-(1,3-thiazol-2-ylcarbonyl)pyrrolidin-3-amine]?
**A.** IC50 [2]: 22.4 nM; Rat Brain 2AG % VehCntrl (%) @1 μM [3]: 472%

**Q.** With O=C(c1nccs1)N1CC[C@H](NC2CN(C(=O)c3ccc4c(ccn4-c4ccc(F)cc4)c3F)C2)C1 [Cpd 198, (3S)-N-(1-{[4-Fluoro-1-(4-fluorophenyl)-1H-indol-5-yl]carbonyl}azetidin-3-yl)-1-(1,3-thiazol-2-ylcarbonyl)pyrrolidin-3-amine] as the compound, how does the IC50 [2] read?
**A.** < 5 nM

**Q.** And the “Rat Brain 2AG % VehCntrl (%) @1 μM” value [3]?
**A.** 937%

**Q.** O=C(c1nccs1)N1CC[C@H](NC2CN(C(=O)c3sc4cc(-c5ccccc5)ccc4c3C(F)(F)F)C2)C1 [Cpd 208, (3S)-N-(1-{[6-Phenyl-3-(trifluoromethyl)-1-benzothiophen-2-yl]carbonyl}azetidin-3-yl)-1-(1,3-thiazol-2-ylcarbonyl)pyrrolidin-3-amine] was tested. Which IC50 [2] did it give?
**A.** 13.4 nM

**Q.** And the “Rat Brain 2AG % VehCntrl (%) @1 μM” value [3]?
**A.** 359%

**Q.** How did the IC50 [2] turn out when O=C(c1nccs1)N1CC[C@H](NC2CN(C(=O)c3cc4ccn(-c5ccc(F)cc5)c4cc3F)C2)C1 [Cpd 212, (3S)-N-(1-{[6-Fluoro-1-(4-fluorophenyl)-1H-indol-5-yl]carbonyl}azetidin-3-yl)-1-(1,3-thiazol-2-ylcarbonyl)pyrrolidin-3-amine] was run?
**A.** < 5 nM

**Q.** And the “Rat Brain 2AG % VehCntrl (%) @1 μM” value [3]?
**A.** 582%
